Legend:
GPR17 [1] = test system: GPR17; set-up: method as in earlier work; settings: literature functional assay, ref Abbracchio et al., 2006, Ciana et al., Eberini et al., 2011; cited from earlier work
GPR17 [2] = target: T1, GPR17 (Rattus norvegicus, UniProt Q09QM4); assay: cAMP assay: inhibition of forskolin-stimulated adenylyl cyclase activity in primary OPCs; assay type: cell-based
T1 construct: oligodendrocyte precursor cells (OPCs) natively expressing GPR17; endogenous in cells; host or cells: primary OPCs from postnatal day 2 Sprague-Dawley rat cortex
T1 sequence (Q09QM4 whole entry): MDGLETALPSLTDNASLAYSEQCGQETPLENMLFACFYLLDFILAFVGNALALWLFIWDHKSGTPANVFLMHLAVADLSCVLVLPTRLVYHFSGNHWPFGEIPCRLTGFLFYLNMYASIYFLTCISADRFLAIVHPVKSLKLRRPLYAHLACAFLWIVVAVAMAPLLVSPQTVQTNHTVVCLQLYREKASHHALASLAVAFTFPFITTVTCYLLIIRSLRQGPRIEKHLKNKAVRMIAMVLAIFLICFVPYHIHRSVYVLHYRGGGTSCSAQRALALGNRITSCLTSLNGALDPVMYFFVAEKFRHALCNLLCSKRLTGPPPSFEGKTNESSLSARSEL
Description: (§1) The pharmacological profile of Asinex 1 was assessed in three different in vitro assays of increasing complexity in oligodendrocyte precursor cells (OPCs) natively expressing GPR17. Primary rat OPCs were cultured either alone or in the presence of mouse DRG neurons, according to a well-established protocol, previously described in Fumagalli et al. ([2015]). The endogenous GPR17 ligands UDP and LTD4 were selected as reference ligands. For more details on culture preparation and analysis, see Supplementary Information.
In order to determine the intracellular cAMP levels, primary purified OPCs were treated with Asinex 1 after 6 days in culture, when GPR17 expression reaches the maximum peak. A competitive protein binding method was used following the procedure previously described (Fumagalli et al., [2015]). Briefly, culture medium was removed, and cells were incubated at 37°C for 15 min with 400 μL of Neurobasal medium in the presence of the phosphodiesterase inhibitor Ro20-1724 (20 μM). The concentration-response curve of tested ligands was assessed by measuring their ability to inhibit cAMP accumulation stimulated by 10 μM forskolin. Asinex 1 was added to cells for 15 min at graded concentration (0.1–50 nM). […] Reactions were terminated by medium removal and addition of 200 μL of 0.4 N HCl. After 30 min, lysates were neutralized with 50 μL of 4 N KOH, and the suspension was centrifuged at 800× g for 5 min. For determination of cAMP, cAMP-binding protein isolated from bovine adrenal glands was incubated with [^3H]cAMP (2 nM), 50 μL of cell lysate or cAMP standard (0–16 pmol) at 4°C for 150 min, in a total volume of 300 μL. Bound radioactivity was separated by rapid filtration through GF/C glass fiber filters and washed twice with 4 mL of 50 mM Tris-HCl, pH 7.4. Radioactivity was measured by liquid scintillation spectrometry.

primary OPCs = assay: OPC differentiation assay (MBP+ cells, immunocytochemistry); assay type: cell-based, rat; settings: 48 h
Description: as §1
(§2) GPR17 ligands were tested both in primary OPCs culture and in OPC/DRG co-cultures to assess their pro-differentiation and pro-myelination effect, respectively. According to the type of culture, a specific protocol of treatment was set up. For primary OPCs, cells were seeded on 13 mm poly-D,L-ornithine-coated coverslips (2 × 10^4 cells/well) and maintained for 2 days in Neurobasal medium supplemented with B27 and proliferative factors (PDGF-BB and bFGF). Afterwards, OPC differentiation was induced by removing proliferative factors and by adding T3 and pharmacological treatments with Asinex 1 (1 or 10 nM) and LTD4 (200 nM), selected as reference compound, were performed the following day. After 48 h, cells were fixed for immunocytochemistry (ICC). For OPC/DRG co-cultures, Asinex 1 (10 nM) and UDP (100 μM) were added to cultures at day 4. The pharmacological treatment was repeated every 2 days up to day 15, when cells were fixed for ICC analysis. For more details, see Supplementary Information.
Oligodendrocyte precursor cell cultures
Primary oligodendrocyte precursor cells (OPCs) were isolated from mixed glial cultures prepared from postnatal day 2 Sprague-Dawley rat cortex by shaking cells on an orbital shaker at 200 rpm, as previously described (Fumagalli et al., 2015). OPCs were then collected and separated from microglia by incubation for 1 h in an uncoated Petri dish. […]

OPC-DRG co-cultures = assay: Myelination assay in OPC-DRG co-cultures (Myelination Index); assay type: cell-based, rat OPCs, mouse DRG neurons; settings: day 4 to day 15
Description: as §1
as §2, with “The pharmacological treatment was repeated every 2 days up to day 15, when cells were fixed for ICC analysis. For more details, see Supplementary Information.” left out

SMILES: CSCCNc1nc(SCCC(F)(F)F)nc2c1ncn2[C@@H]1O[C@H](COP(=O)(O)OP(=O)(O)C(Cl)(Cl)P(=O)(O)O)[C@@H](O)[C@H]1O [Cangrelor]
- ratio between Cangrelor and Asinex 1 affinities (GPR17 [1]): 7
- IC50 (GPR17 [2]; primary OPCs, constant ASN 1 concentration of 10 nM, read-out: IC50, antagonism of ASN 1-mediated inhibition of forskolin-stimulated adenylyl cyclase activity): 10.2 ± 0.8 nM

SMILES: CCCCC/C=C\C\C=C/C=C/C=C/[C@@H](SC[C@H](N)C(=O)NCC(=O)O)[C@@H](O)CCCC(=O)O [LTD4]
- percentage of MBP+ cells (control set to 100%) (primary OPCs; 200 nM): 171.0 ± 21.70%

SMILES: COc1ccc(-n2c(SC(C)C(=O)Nc3ccccc3)nnc2-c2ccccc2OC)cc1 (stereo not drawn) [Asinex 1, 2-[[5-(2-methoxyphenyl)-4-(4-methoxyphenyl)-4H-1,2,4-triazol-3-yl]thio]-N-phenyl-propanamide]
- percentage of MBP+ cells (control set to 100%) (primary OPCs; 1 nM): 166.5 ± 16.21%
- percentage of MBP+ cells (control set to 100%) (primary OPCs; 10 nM): 158.3 ± 15.77%
- Myelination Index (control 100%) (OPC-DRG co-cultures; 10 nM): 240.3 ± 64.43%
- EC50 (GPR17 [2]; primary OPCs, 10 μM forskolin, 0.1–50 nM, read-out: EC50, inhibition of forskolin-stimulated cAMP formation): 6.5 ± 0.8 nM
- pharmacological profile at GPR17 (GPR17 [2]; primary rat OPCs, nucleotide binding site): full agonist

SMILES: O=c1ccn([C@@H]2O[C@H](COP(=O)(O)OP(=O)(O)O)[C@@H](O)[C@H]2O)c(=O)[nH]1 [UDP]
- Myelination Index (control 100%) (OPC-DRG co-cultures; 100 μM): 193.9 ± 32.31%

Source: article PMC6966494, “Surface Plasmon Resonance as a Tool for Ligand Binding Investigation of Engineered GPR17 Receptor, a G Protein Coupled Receptor Involved in Myelination” (Frontiers in Chemistry, 2020)
